Ki, ID50 and ED50 data for eight compounds are collected here from patent publication US8476253B2, “Amide derivative” (Daiichi Sankyo Company, Limited, priority 2009, dated 2013).

For one test, the target named is T1, human M3 receptor (Homo sapiens, UniProt P20309).
T1 construct: expressed in transfected cells; host or cells: CHO cells
The experiment in a line: Test for binding to human M3 receptor. An outline of the steps:
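CHO-cell crude membranes expressing human M3 were incubated with [N-methyl-3H]-(−)-scopolamine methyl chloride in 50 mM Tris-HCl, 0.5 mM EDTA, pH 7.4, for 60 min at room temperature. Bound ligand was collected on PEI-pretreated glass-fibre filters and counted by liquid scintillation. Ki was calculated from IC50 and the radioligand Kd.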

In the next test the test system is muscarine M3 receptor. The test can be described thus: Effect of suppressing methacholine-induced airway contraction (in vivo, intratracheal administration). The arrangement: species or system guinea pig. The settings on record: guinea pigs, intratracheal administration 60 minutes before 30 μg/kg i.v. methacholine; AUC of increase in airway pressure over 10 minutes. The essentials: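 Anesthetized, gallamine-paralysed, ventilated male Hartley guinea pigs (350–550 g); compound in 5% glucose given intratracheally 60 min before 30 μg/kg i.v. methacholine. Airway pressure AUC over 10 min scored; ID50 from inhibition versus 5% glucose vehicle group.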

The next test concerns the target T2, neurokinin NK2 receptor (Cavia porcellus, UniProt Q64077).
T2 construct: Using healthy guinea pigs (body weight, 350 to 550 g; Hartley male guinea pigs); from tissue; host or cells: live anaesthetised Hartley male guinea pigs (airway, in vivo)
T2 sequence (Q64077 1-402): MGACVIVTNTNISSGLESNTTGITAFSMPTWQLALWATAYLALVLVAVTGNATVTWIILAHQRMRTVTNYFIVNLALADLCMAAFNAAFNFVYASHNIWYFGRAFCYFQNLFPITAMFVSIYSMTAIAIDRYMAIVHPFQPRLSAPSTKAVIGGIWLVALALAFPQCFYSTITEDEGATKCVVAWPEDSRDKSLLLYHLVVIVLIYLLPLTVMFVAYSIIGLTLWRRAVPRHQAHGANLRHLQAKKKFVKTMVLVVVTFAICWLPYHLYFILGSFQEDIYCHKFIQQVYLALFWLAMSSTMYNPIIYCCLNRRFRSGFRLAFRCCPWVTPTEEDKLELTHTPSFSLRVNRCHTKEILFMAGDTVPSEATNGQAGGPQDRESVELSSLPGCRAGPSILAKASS
The experiment in a line: Effect of suppressing neurokinin A-induced airway contraction (in vivo, intratracheal administration). The arrangement: species or system guinea pig. The settings on record: guinea pigs, intratracheal administration 60 minutes before 4 μg/kg i.v. NKA, AUC of increase in airway pressure over 10 minutes; for ED50: guinea pig, read-out: ID50 (the source's name). The essentials:
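Anesthetized, gallamine-paralysed, ventilated male Hartley guinea pigs received compound in 5% glucose intratracheally 60 minutes before 4 μg/kg NKA i.v. AUC of airway pressure increase over 10 minutes gave inhibition versus vehicle controls, expressed as ID50.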

Setting [1] is: CHO cells expressing human M3 receptor, [N-methyl-3H]-(-)-Scopolamine methyl chloride 0.5 nM, Ki from IC50 and Kd, read-out: Ki.

Counter-ions that a name gives are not always drawn. Like-named read-outs stand apart in the source and are kept apart here.

T1 sequence (P20309 whole entry): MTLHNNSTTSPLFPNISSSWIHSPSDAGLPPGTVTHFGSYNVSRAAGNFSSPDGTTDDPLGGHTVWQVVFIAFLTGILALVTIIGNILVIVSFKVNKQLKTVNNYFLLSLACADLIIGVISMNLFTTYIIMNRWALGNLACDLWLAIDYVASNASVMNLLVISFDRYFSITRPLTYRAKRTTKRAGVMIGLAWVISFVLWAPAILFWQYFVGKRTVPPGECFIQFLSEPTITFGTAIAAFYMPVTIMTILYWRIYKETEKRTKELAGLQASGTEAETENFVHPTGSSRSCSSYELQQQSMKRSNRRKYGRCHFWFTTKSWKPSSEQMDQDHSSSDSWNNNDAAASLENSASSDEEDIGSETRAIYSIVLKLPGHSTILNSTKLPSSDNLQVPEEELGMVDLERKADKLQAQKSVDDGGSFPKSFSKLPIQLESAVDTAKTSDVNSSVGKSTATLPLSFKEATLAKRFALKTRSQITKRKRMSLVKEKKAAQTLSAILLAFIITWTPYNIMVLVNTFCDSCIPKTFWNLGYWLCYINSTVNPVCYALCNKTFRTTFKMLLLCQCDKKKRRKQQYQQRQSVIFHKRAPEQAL

For orientation: Ki means the equilibrium dissociation constant of an inhibitor or competing ligand from its target. Turning to `Cc1nc(NCCCCCC(=O)N(C)CCN2CCC(OC(=O)Nc3ccccc3-c3ccccc3)CC2)sc1C(=O)N(C)CCCN(C)C(=O)CO[C@H]1Cc2ccccc2C12CCN(CC[C@@]1(c3ccc(F)cc3)CN(C(=O)c3cc(C(F)(F)F)cc(C(F)(F)F)c3)CO1)CC2` [Example 105, 1-(2-{[6-({5-[{3-[({[(2S)-1′-{2-[(5R)-3-[3,5-Bis(trifluoromethyl)benzoyl]-5-(4-fluorophenyl)-1,3-oxazolidin-5-yl]ethyl}-2,3-dihydrospiro[indene-1,4′-piperidin]-2-yl]oxy}acetyl)(methyl)amino]propyl}(methyl)carbamoyl]-4-methyl-1,3-thiazol-2-yl}amino)hexanoyl](methyl)amino}ethyl)piperidin-4-yl biphenyl-2-ylcarbamate trihydrochloride], at human M3 receptor, the Ki came to 1.4 nM. This compound also had an ID50 with muscarine M3 receptor of 0.04 mg/kg. Besides, the ED50 at neurokinin NK2 receptor was 0.0136 mg/kg.

As to `CN(CCN1CCC(OC(=O)Nc2ccccc2-c2ccccc2)CC1)C(=O)CCNc1ccc(C(=O)N(C)CCCN(C)C(=O)CO[C@H]2Cc3ccccc3C23CCN(CC[C@@]2(c4ccc(F)cc4)CN(C(=O)c4cc(C(F)(F)F)cc(C(F)(F)F)c4)CO2)CC3)cc1` [Example 94, 1-{2-[(N-{4-[{3-[({[(2S)-1′-{2-[(5R)-3-[3,5-Bis(trifluoromethyl)benzoyl]-5-(4-fluorophenyl)-1,3-oxazolidin-5-yl]ethyl}-2,3-dihydrospiro[indene-1,4′-piperidin]-2-yl]oxy}acetyl)(methyl)amino]propyl}(methyl)carbamoyl]phenyl}-β-alanyl)(methyl)amino]ethyl}piperidin-4-yl biphenyl-2-ylcarbamate], on human M3 receptor (setting [1]), the Ki stood at 2 nM. The compound further displayed an ID50 in the test on muscarine M3 receptor of 0.0395 mg/kg. Also, at neurokinin NK2 receptor, the ED50 stood at 0.0431 mg/kg.

The compound `CN(CCN1CCC(OC(=O)Nc2ccccc2-c2ccccc2)CC1)C(=O)CCCCCCN(C)c1ccc(C(=O)N(C)CCCN(C)C(=O)CO[C@H]2Cc3ccccc3C23CCN(CC[C@@]2(c4ccc(F)cc4)CN(C(=O)c4cc(C(F)(F)F)cc(C(F)(F)F)c4)CO2)CC3)cc1` [Example 40, 1-{2-[{7-[{4-[{3-[({[(2S)-1′-{2-[(5R)-3-[3,5-Bis(trifluoromethyl)benzoyl]-5-(4-fluorophenyl)-1,3-oxazolidin-5-yl]ethyl}-2,3-dihydrospiro[indene-1,4′-piperidin]-2-yl]oxy}acetyl)(methyl)amino]propyl}(methyl)carbamoyl]phenyl}(methyl)amino]heptanoyl}(methyl)amino]ethyl}piperidin-4-yl biphenyl-2-ylcarbamate trihydrochloride] came in with a Ki on human M3 receptor of 2 nM. In addition, in the test with muscarine M3 receptor, the ID50 is 0.0754 mg/kg. In addition, at neurokinin NK2 receptor, the ED50 was found to be 0.0573 mg/kg.

As for `CN(CCN1CCC(OC(=O)Nc2ccccc2-c2ccccc2)CC1)C(=O)CCCCCNc1ncc(C(=O)N(C)CCCN(C)C(=O)CO[C@H]2Cc3ccccc3C23CCN(CC[C@@]2(c4ccc(F)cc4)CN(C(=O)c4cc(C(F)(F)F)cc(C(F)(F)F)c4)CO2)CC3)cn1` [Example 14, 1-(2-{[6-({5-[{3-[({[(2S)-1′-{2-[(5R)-3-[3,5-Bis(trifluoromethyl)benzoyl]-5-(4-fluorophenyl)-1,3-oxazolidin-5-yl]ethyl}-2,3-dihydrospiro[indene-1,4′-piperidin]-2-yl]oxy}acetyl)(methyl)amino]propyl}(methyl)carbamoyl]pyrimidin-2-yl}amino)hexanoyl](methyl)amino}ethyl)piperidin-4-yl biphenyl-2-ylcarbamate trihydrochloride], on human M3 receptor, the Ki is 0.93 nM. The ID50 in the test with muscarine M3 receptor is 0.0129 mg/kg. The ED50 at neurokinin NK2 receptor is 0.0284 mg/kg.

Regarding `CN(CCCCCC(=O)N(C)CCN1CCC(OC(=O)Nc2ccccc2-c2ccccc2)CC1)Cc1ccc(C(=O)N(C)CCCN(C)C(=O)CO[C@H]2Cc3ccccc3C23CCN(CC[C@@]2(c4ccc(F)cc4)CN(C(=O)c4cc(C(F)(F)F)cc(C(F)(F)F)c4)CO2)CC3)cc1` [Example 74, 1-{2-[{6-[{4-[{3-[({[(2S)-1′-{2-[(5R)-3-[3,5-Bis(trifluoromethyl)benzoyl]-5-(4-fluorophenyl)-1,3-oxazolidin-5-yl]ethyl}-2,3-dihydrospiro[indene-1,4′-piperidin]-2-yl]oxy}acetyl)(methyl)amino]propyl}(methyl)carbamoyl]benzyl}(methyl)amino]hexanoyl}(methyl)amino]ethyl}piperidin-4-yl biphenyl-2-ylcarbamate], the Ki on human M3 receptor (setting [1]) turned out to be 0.32 nM. Moreover, the ID50 in the test with muscarine M3 receptor is 0.043 mg/kg. For the same compound, the ED50 on neurokinin NK2 receptor worked out at 0.0127 mg/kg.

At human M3 receptor, `CN(CCN1CCC(OC(=O)Nc2ccccc2-c2ccccc2)CC1)C(=O)CCCCCNc1cccc(C(=O)N(C)CCCN(C)C(=O)CO[C@H]2Cc3ccccc3C23CCN(CC[C@@]2(c4ccc(F)cc4)CN(C(=O)c4cc(C(F)(F)F)cc(C(F)(F)F)c4)CO2)CC3)c1` [Example 43, 1-(2-{[6-({3-[{3-[({[(2S)-1′-{2-[(5R)-3-[3,5-Bis(trifluoromethyl)benzoyl]-5-(4-fluorophenyl)-1,3-oxazolidin-5-yl]ethyl}-2,3-dihydrospiro[indene-1,4′-piperidin]-2-yl]oxy}acetyl)(methyl)amino]propyl}(methyl)carbamoyl]phenyl}amino)hexanoyl](methyl)amino}ethyl)piperidin-4-yl biphenyl-2-ylcarbamate trihydrochloride] registered a Ki of 2.6 nM. For the same compound, the ID50 with muscarine M3 receptor turned out to be 0.0757 mg/kg. The ED50 at neurokinin NK2 receptor worked out at 0.0241 mg/kg.

As to `CN(CCN1CCC(OC(=O)Nc2ccccc2-c2ccccc2)CC1)C(=O)CCCCCNc1ccc(C(=O)N(C)CCCN(C)C(=O)CO[C@H]2Cc3ccccc3C23CCN(CC[C@@]2(c4ccc(F)cc4)CN(C(=O)c4cc(C(F)(F)F)cc(C(F)(F)F)c4)CO2)CC3)nc1` [Example 9, 1-(2-{[6-({6-[{3-[({[(2S)-1′-{2-[(5R)-3-[3,5-Bis(trifluoromethyl)benzoyl]-5-(4-fluorophenyl)-1,3-oxazolidin-5-yl]ethyl}-2,3-dihydrospiro[indene-1,4′-piperidin]-2-yl]oxy}acetyl)(methyl)amino]propyl}(methyl)carbamoyl]pyridin-3-yl}amino)hexanoyl](methyl)amino}ethyl)piperidin-4-yl biphenyl-2-ylcarbamate], the Ki on human M3 receptor (setting [1]) was 1.3 nM. Besides, the ID50 in the test with muscarine M3 receptor was 0.0164 mg/kg. Besides, the ED50 at neurokinin NK2 receptor was determined as 0.0374 mg/kg.

For the compound `CN(CCN1CCC(OC(=O)Nc2ccccc2-c2ccccc2)CC1)C(=O)CCCCCNc1ccc(C(=O)N(C)CCN(C)C(=O)CO[C@H]2Cc3ccccc3C23CCN(CC[C@@]2(c4ccc(F)cc4)CN(C(=O)c4cc(C(F)(F)F)cc(C(F)(F)F)c4)CO2)CC3)cc1` [Example 15, 1-(2-{[6-({4-[{2-[({[(2S)-1-{2-[(5R)-3-[3,5-Bis(trifluoromethyl)benzoyl]-5-(4-fluorophenyl)-1,3-oxazolidin-5-yl]ethyl}-2,3-dihydrospiro[indene-1,4′-piperidin]-2-yl]oxy}acetyl)(methyl)amino]ethyl}(methyl)carbamoyl]phenyl}amino)hexanoyl](methyl)amino}ethyl)piperidin-4-yl biphenyl-2-ylcarbamate], the Ki on human M3 receptor (setting [1]) stood at 1.2 nM. The ID50 is 0.0375 mg/kg with muscarine M3 receptor and 0.0377 mg/kg on neurokinin NK2 receptor.
